Four compounds from US9079910B2, “5-(1,2,3-triazol-4-yl)-7H-pyrrolo[2,3-D]pyrimidine derivatives” (Merck Patent GmbH, priority 2011, dated 2015) can be followed below.

In one test the test system is A2780. Briefly: Vitality assay (tumour cell proliferation/vitality, Alamar Blue), A2780. The conditions noted are these: Homo sapiens, 96 h, A2780 cells, 4 days. Type of test: cell-based. The method, then:
(§1) In the present experiment description, the inhibition of tumour cell proliferation/tumour cell vitality by active compounds is described.
(§2) The cells are sown in a suitable cell density in microtitre plates (96-well format) and the test substances are added in the form of a concentration series. After four further days of cultivation in serum-containing medium, the tumour cell proliferation/tumour cell vitality can be determined by means of an Alamar Blue test system.
(§3) The cells are cultivated in medium. At intervals of several days, the cells are detached from the culture dishes with the aid of trypsin solution and sown in suitable dilution in fresh medium. The cells are cultivated at 37° Celsius and 10% CO2. […]
(§4) In each case, 20 μl of Alamar Blue reagent are added per well, and the microtitre plates are incubated, for example, for a further seven hours in a CO2 incubator (at 37° C. and 10% CO2). The plates are measured in a reader with a fluorescence filter at a wavelength of 540 nm. […]
(§5) The absorbance value of the medium control (no cells and test substances used) is subtracted from all other absorbance values. The controls (cells without test substance) are set equal to 100 percent, and all other absorbance values are set in relation thereto (for example in % of control):
(§6) IC50 values (50% inhibition) are determined with the aid of statistics programs, such as, for example, RS1.
In general terms: Alamar Blue is a resazurin reagent that responds to reducing activity.

A further test has as its target T1, PDK1 (Homo sapiens, UniProt O15530).
T1 construct: His6 (N)
T1 sequence (O15530 51-556 limits assumed): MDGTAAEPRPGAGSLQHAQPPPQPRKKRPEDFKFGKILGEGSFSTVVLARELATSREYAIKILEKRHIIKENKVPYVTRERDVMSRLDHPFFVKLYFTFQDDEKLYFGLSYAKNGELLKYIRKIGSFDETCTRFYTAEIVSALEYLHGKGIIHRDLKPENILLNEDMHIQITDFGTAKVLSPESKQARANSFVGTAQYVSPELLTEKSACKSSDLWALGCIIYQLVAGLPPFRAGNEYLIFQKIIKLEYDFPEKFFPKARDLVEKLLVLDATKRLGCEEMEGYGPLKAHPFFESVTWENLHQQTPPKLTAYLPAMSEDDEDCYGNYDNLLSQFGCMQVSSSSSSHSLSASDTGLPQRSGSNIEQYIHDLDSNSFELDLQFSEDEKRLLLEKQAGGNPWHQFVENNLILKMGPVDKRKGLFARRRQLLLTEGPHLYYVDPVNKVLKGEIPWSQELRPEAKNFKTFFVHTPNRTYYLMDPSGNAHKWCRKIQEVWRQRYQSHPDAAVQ
The experiment in a line: Test for the inhibition of PDK1 (flashplate, 33P-ATP). The conditions noted are these: His6-PDK1, 4 μM ATP, 30° C., 60 min. Type of test: biochemical. The method, then:
4.0 Test for the Inhibition of PDK1
The experimental batches are carried out in a flashplate system with 384 wells/microtitration plate.
In each case, the PDK1 sample His6-PDK1(1-50)(3.4 nM), the PDK1 substrate biotin-bA-bA-[…] (400 nM), 4 μM ATP (with 0.2 μCi of ^33P-ATP/well) and the test substance in 50 μl of conventional experimental solution per well are incubated at 30° C. for 60 min. The test substances are employed in corresponding concentrations (if desired in a dilution series). The control is carried out without test substance. The reaction is stopped using standard methods and washed. The activity of the kinase is measured via the incorporated radioactivity in top count. In order to determine the non-specific kinase reaction (blank value), the experimental batches are carried out in the presence of 100 nM staurosporine.
The radioactivity (decompositions per minute) of the blank value (no use of test substance in the presence of staurosporine) is subtracted from all other radioactivity values. The controls (kinase activity without test substance) are set equal to 100 percent and all other radioactivity values (after subtracting the blank value) are expressed set in relation thereto (for example in % of the control).
IC50 values (50% inhibition) are determined with the aid of statistics programmes, such as, for example, RS1.

Another test deals with T2, IKKepsilon (Homo sapiens, UniProt Q14164).
T2 sequence (Q14164 1-716): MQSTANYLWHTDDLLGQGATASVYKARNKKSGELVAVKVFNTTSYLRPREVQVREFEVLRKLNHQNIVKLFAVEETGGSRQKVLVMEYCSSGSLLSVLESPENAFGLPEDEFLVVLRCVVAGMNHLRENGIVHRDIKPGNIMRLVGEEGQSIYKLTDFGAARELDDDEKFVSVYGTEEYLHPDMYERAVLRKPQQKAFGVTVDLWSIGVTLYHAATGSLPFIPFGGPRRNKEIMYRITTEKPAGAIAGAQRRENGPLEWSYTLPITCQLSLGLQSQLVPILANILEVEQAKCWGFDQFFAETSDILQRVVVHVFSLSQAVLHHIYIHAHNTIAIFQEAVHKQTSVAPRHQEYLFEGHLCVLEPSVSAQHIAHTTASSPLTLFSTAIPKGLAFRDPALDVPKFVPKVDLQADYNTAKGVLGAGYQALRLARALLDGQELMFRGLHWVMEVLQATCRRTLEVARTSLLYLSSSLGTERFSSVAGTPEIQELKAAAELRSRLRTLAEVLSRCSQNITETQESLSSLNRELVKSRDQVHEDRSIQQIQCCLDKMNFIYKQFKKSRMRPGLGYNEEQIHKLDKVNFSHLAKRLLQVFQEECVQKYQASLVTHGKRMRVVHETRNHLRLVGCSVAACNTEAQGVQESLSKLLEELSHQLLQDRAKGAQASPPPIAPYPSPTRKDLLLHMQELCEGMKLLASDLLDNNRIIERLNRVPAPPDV
Briefly: IKK kinase test (IKKepsilon) (384-well flashplate assay). Type of test: biochemical. The conditions noted are these: 1 nM IKK, 10 μM ATP, 30° C., 120 min. As for the experimental part:
IKK—Kinase Test (IKKepsilon)
The kinase assay is performed as 384-well flashplate assay.
1 nM IKK, 800 nM biotinylated I B (19-42) peptide (biotin-C6-C6-[…]) and 10 μM ATP (with 0.3 μCi of ^33P-ATP/well) are incubated in a total volume of 50 μl (10 mM MOPS, 10 mM magnesium acetate, 0.1 mM EGTA, 1 mM dithiothreitol, 0.02% of Brij35, 0.1% of BSA, 0.1% of BioStab, pH 7.5) with or without test substance at 30° C. for 120 min. The reaction is stopped using 25 μl of 200 mM EDTA solution, filtered off with suction after 30 min at room temperature, and the wells are washed 3 times with 100 μl of 0.9% NaCl solution. The non-specific proportion of the kinase reaction (blank) is determined using 3 μM BX-795. Radioactivity is measured in the Topcount. IC50 values are calculated using RS1.

In test [1] the target is T3, TANK binding kinase (TBK1) (Homo sapiens, UniProt Q9UHD2).
T3 sequence (Q9UHD2 1-729): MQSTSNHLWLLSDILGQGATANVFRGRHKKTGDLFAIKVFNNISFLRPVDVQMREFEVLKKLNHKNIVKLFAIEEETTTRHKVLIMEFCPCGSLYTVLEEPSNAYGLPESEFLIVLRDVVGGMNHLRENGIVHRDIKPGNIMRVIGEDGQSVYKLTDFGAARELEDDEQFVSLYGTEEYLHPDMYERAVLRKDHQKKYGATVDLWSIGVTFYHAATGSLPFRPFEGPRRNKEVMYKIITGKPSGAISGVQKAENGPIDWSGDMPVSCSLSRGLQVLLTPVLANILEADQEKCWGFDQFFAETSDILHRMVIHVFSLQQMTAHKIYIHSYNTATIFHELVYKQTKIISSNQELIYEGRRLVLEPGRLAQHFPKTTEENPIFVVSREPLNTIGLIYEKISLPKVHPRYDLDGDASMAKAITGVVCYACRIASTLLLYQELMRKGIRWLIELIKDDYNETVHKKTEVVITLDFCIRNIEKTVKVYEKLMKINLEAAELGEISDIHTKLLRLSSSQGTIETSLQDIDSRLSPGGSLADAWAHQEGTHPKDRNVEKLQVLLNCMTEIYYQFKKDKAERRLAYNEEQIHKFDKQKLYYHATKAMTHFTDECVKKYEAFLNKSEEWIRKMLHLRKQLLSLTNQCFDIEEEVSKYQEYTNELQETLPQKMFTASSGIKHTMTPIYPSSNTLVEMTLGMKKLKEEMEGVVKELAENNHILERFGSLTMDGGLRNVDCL
Briefly: TBK1 kinase test (384-well flashplate assay). The conditions noted are these: 0.6 nM TBK1, 10 μM ATP, 30° C., 120 min. Type of test: biochemical. The method, then: The kinase assay is performed as 384-well flashplate assay. 0.6 nM TANK binding kinase (TBK1), 800 nM biotinylated MELK-derived peptide (biotin-Ah-Ah-[…]) and 10 μM ATP (with 0.25 μCi of ^33P-ATP/well) are incubated in a total volume of 50 μl (10 mM MOPS, 10 mM magnesium acetate, 0.1 mM EGTA, 1 mM DTT, 0.02% of Brij35, 0.1% of BSA, pH 7.5) with or without test substance at 30° C. for 120 min. The reaction is stopped using 25 μl of 200 mM EDTA solution, filtered off with suction after 30 min at room temperature, and the wells are washed 3 times with 100 μl of 0.9% NaCl solution. The non-specific proportion of the kinase reaction (blank) is determined using 100 nM staurosporine. Radioactivity is measured in the Topcount. IC50 values are calculated using RS1.

For the next test, the system named is HCT 116. Briefly: Vitality assay (tumour cell proliferation/vitality, Alamar Blue), HCT 116. It is filed as cell-based. The conditions noted are these: Homo sapiens, 96 h, HCT 116 cells, 4 days. As for the experimental part:
as §1, §2, §3, §4, §5, §6

pIC50: −log10 of the molar value. Bounds are passed on as bounds.

Turning to `COCCOc1ncnc2[nH]cc(-c3cn(Cc4ccccc4)nn3)c12` [Compound A1, 5-(1-benzyl-1H-1,2,3-triazol-4-yl)-4-(2-methoxyethoxy)-7H-pyrrolo[2,3-d]pyrimidine], the pIC50 (in general, the negative decadic logarithm of the IC50, by convention in mol/L) was 5.00 to 6.00 in the test with A2780; 6.00 to 8.00 against PDK1; 5.00 to 6.00 on IKKepsilon; 6.00 to 8.00 in test [1]; 5.00 to 6.00 in the test with HCT 116.
Regarding `COc1ncnc2[nH]cc(-c3cn(Cc4ccccc4)nn3)c12` [Compound A2], the pIC50 (against PDK1; against IKKepsilon; in test [1]) was 6.00 to 8.00 throughout.
As for `c1ccc(Cn2cc(-c3c[nH]c4ncncc34)nn2)cc1` [Compound A6, 5-(1-benzyl-1H-1,2,3-triazol-4-yl)-7H-pyrrolo[2,3-d]pyrimidine], the pIC50 (at PDK1; against IKKepsilon; in test [1]) was 5.00 to 6.00 each time.
For `Fc1cccc(C(CCN2CCCCC2)n2cc(-c3c[nH]c4ncncc34)nn2)c1F` (centres unmarked) [Compound A9, 5-{1-[1-(2,3-difluorophenyl)-3-piperidin-1-ylpropyl]-1H-1,2,3-triazol-4-yl}-7H-pyrrolo[2,3-d]pyrimidine], the figures for the pIC50 (on PDK1; on IKKepsilon; in test [1]) were 5.00 to 6.00, 5.00 to 6.00 and less than 5.00, respectively.
